Each structure is given as a SMILES string. Counter-ions that a name gives are not always drawn.

The term melting point denotes the temperature, or range, at which the solid turns liquid. `Cc1ccccc1C1(CN)C2CC3CC(C2)CC1C3` (stereo not shown) (as salt: hydrochloride): the melting point is 270 to 271 °C.
Take `CCc1cccc(C2(CN)C3CC4CC(C3)CC2C4)c1` (stereo not shown) (as salt: hydrochloride) [Example 1, 2-(3-Ethylphenyl)-2-adamantanemethanamine hydrochloride]: the melting point is 89 to 90 °C.
Take `Cc1cccc(C2(CN)C3CC4CC(C3)CC2C4)c1` (stereo not shown) (as salt: hydrochloride) [Example 2, 2-(3-Methylphenyl)-2-adamantanemethanamine hydrochloride]: the melting point was 242 to 243 °C.
With `NCC1(c2ccccc2)C2CC3CC(C2)CC1C3` (stereo not shown) (as salt: hydrochloride) [Example 3, 2-Phenyl-2-adamantanemethanamine hydrochloride], the melting point was in the range of 253 to 255 °C.
Then `Cc1ccc(C2(CN)C3CC4CC(C3)CC2C4)cc1` (stereo not shown) (as salt: hydrochloride) [Example 4, 2-(4-Methylphenyl)-2-adamantanemethanamine hydrochloride], with 261 to 263 °C; and `NCC1(c2ccc(F)cc2)C2CC3CC(C2)CC1C3` (stereo not shown) (as salt: hydrochloride) [Example 6, 2-(4-Fluorophenyl)-2-adamantanemethanamine hydrochloride], with 262 to 263 °C.
Then `NCC1(c2ccc(Cl)cc2)C2CC3CC(C2)CC1C3` (stereo not shown) (as salt: hydrochloride) [Example 7, 2-(4-Chlorophenyl)-2-adamantanemethanamine hydrochloride], with greater than 300 °C; and `COc1ccc(C2(CN)C3CC4CC(C3)CC2C4)cc1` (stereo not shown) (as salt: hydrochloride) [Example 8, 2-(4-Methoxyphenyl)-2-adamantanemethanamine hydrochloride], with 234 to 235 °C; and `NCC1(c2ccc(C(F)(F)F)cc2)C2CC3CC(C2)CC1C3` (stereo not shown) (as salt: hydrochloride) [Example 9, 2-(4-Trifluoromethylphenyl)-2-adamantanemethanamine hydrochloride], with 279 to 281 °C.
The compound `NCC1(c2cccs2)C2CC3CC(C2)CC1C3` (stereo not shown) (as salt: hydrochloride) [Example 10, 2-(2-Thienyl)-2-adamantanemethanamine hydrochloride] returned a melting point of 255 to 257 °C.
